± gives the expanded uncertainty stated by the source.
Experiments:
[1] = 298.15 K; 101.33 kPa; Liquid; Vibrating tube method
[2] = mn = molality of the nth substance listed, in mol/kg; settings: 84.5 kPa, Liquid; for speed of sound: Single path-length method; for mass density: Vibrating tube method

CCCCn1cc[n+](C)c1.O=S(=O)([O-])C(F)(F)F [1-butyl-3-methylimidazolium trifluoromethanesulfonate]
mass density [1]: 1297.84 ± 5.4 kg/m3

CCCCCCn1cc[n+](C)c1.[Cl-] [1-hexyl-3-methylimidazolium chloride]
mass density [1]: 1042.86 ± 4.3 kg/m3

CCCCn1cc[n+](C)c1.[Cl-] [1-butyl-3-methylimidazolium chloride] + O
speed of sound ([2]; 288.15 K, m1 = 0.0344): 1472 ± 1 m/s
speed of sound ([2]; 288.15 K, m1 = 0.0526): 1474.7 ± 1 m/s
speed of sound ([2]; 288.15 K, m1 = 0.0926): 1480.8 ± 1 m/s
speed of sound ([2]; 288.15 K, m1 = 0.1181): 1485 ± 1 m/s
speed of sound ([2]; 288.15 K, m1 = 0.1806): 1493.8 ± 1 m/s
speed of sound ([2]; 288.15 K, m1 = 0.2371): 1502.2 ± 1 m/s
speed of sound ([2]; 288.15 K, m1 = 0.479): 1535.7 ± 1.1 m/s
speed of sound ([2]; 288.15 K, m1 = 0.7374): 1568.8 ± 1.1 m/s
mass density ([2]; 288.15 K, m1 = 0.0344): 999.577 ± 4 kg/m3
mass density ([2]; 288.15 K, m1 = 0.0526): 999.828 ± 4 kg/m3
mass density ([2]; 288.15 K, m1 = 0.0926): 1000.37 ± 4 kg/m3
mass density ([2]; 288.15 K, m1 = 0.1181): 1000.72 ± 4 kg/m3
mass density ([2]; 288.15 K, m1 = 0.1806): 1001.56 ± 4 kg/m3
mass density ([2]; 288.15 K, m1 = 0.2371): 1002.33 ± 4 kg/m3
mass density ([2]; 288.15 K, m1 = 0.479): 1005.59 ± 4 kg/m3
mass density ([2]; 288.15 K, m1 = 0.7374): 1009.02 ± 4 kg/m3
speed of sound ([2]; 298.15 K, m1 = 0.0344): 1501.5 ± 1 m/s
speed of sound ([2]; 298.15 K, m1 = 0.0526): 1504 ± 1 m/s
speed of sound ([2]; 298.15 K, m1 = 0.0926): 1509.3 ± 1 m/s
speed of sound ([2]; 298.15 K, m1 = 0.1181): 1513.1 ± 1 m/s
speed of sound ([2]; 298.15 K, m1 = 0.1806): 1520.7 ± 1 m/s
speed of sound ([2]; 298.15 K, m1 = 0.2371): 1528 ± 1 m/s
speed of sound ([2]; 298.15 K, m1 = 0.479): 1557.1 ± 1.1 m/s
speed of sound ([2]; 298.15 K, m1 = 0.7374): 1586 ± 1.1 m/s
mass density ([2]; 298.15 K, m1 = 0.0344): 997.479 ± 4 kg/m3
mass density ([2]; 298.15 K, m1 = 0.0526): 997.71 ± 4 kg/m3
mass density ([2]; 298.15 K, m1 = 0.0926): 998.209 ± 4 kg/m3
mass density ([2]; 298.15 K, m1 = 0.1181): 998.524 ± 4 kg/m3
mass density ([2]; 298.15 K, m1 = 0.1806): 999.3 ± 4 kg/m3
mass density ([2]; 298.15 K, m1 = 0.2371): 999.998 ± 4 kg/m3
mass density ([2]; 298.15 K, m1 = 0.479): 1002.98 ± 4 kg/m3
mass density ([2]; 298.15 K, m1 = 0.7374): 1006.11 ± 4 kg/m3
speed of sound ([2]; 308.15 K, m1 = 0.0344): 1523.9 ± 1 m/s
speed of sound ([2]; 308.15 K, m1 = 0.0526): 1526.1 ± 1 m/s
speed of sound ([2]; 308.15 K, m1 = 0.0926): 1530.8 ± 1 m/s
speed of sound ([2]; 308.15 K, m1 = 0.1181): 1534 ± 1 m/s
speed of sound ([2]; 308.15 K, m1 = 0.1806): 1540.7 ± 1 m/s
speed of sound ([2]; 308.15 K, m1 = 0.2371): 1547.1 ± 1 m/s
speed of sound ([2]; 308.15 K, m1 = 0.479): 1572.5 ± 1.1 m/s
speed of sound ([2]; 308.15 K, m1 = 0.7374): 1597.6 ± 1.1 m/s
mass density ([2]; 308.15 K, m1 = 0.0344): 994.434 ± 4 kg/m3
mass density ([2]; 308.15 K, m1 = 0.0526): 994.648 ± 4 kg/m3
mass density ([2]; 308.15 K, m1 = 0.0926): 995.113 ± 4 kg/m3
mass density ([2]; 308.15 K, m1 = 0.1181): 995.403 ± 4 kg/m3
mass density ([2]; 308.15 K, m1 = 0.1806): 996.124 ± 4 kg/m3
mass density ([2]; 308.15 K, m1 = 0.2371): 996.773 ± 4 kg/m3
mass density ([2]; 308.15 K, m1 = 0.479): 999.537 ± 4 kg/m3
mass density ([2]; 308.15 K, m1 = 0.7374): 1002.43 ± 4 kg/m3
speed of sound ([2]; 318.15 K, m1 = 0.0344): 1540.1 ± 1 m/s
speed of sound ([2]; 318.15 K, m1 = 0.0526): 1542 ± 1 m/s
speed of sound ([2]; 318.15 K, m1 = 0.0926): 1546.1 ± 1 m/s
speed of sound ([2]; 318.15 K, m1 = 0.1181): 1548.9 ± 1 m/s
speed of sound ([2]; 318.15 K, m1 = 0.1806): 1554.8 ± 1 m/s
speed of sound ([2]; 318.15 K, m1 = 0.2371): 1560.5 ± 1 m/s
speed of sound ([2]; 318.15 K, m1 = 0.479): 1582.7 ± 1.1 m/s
speed of sound ([2]; 318.15 K, m1 = 0.7374): 1604.5 ± 1.1 m/s
mass density ([2]; 318.15 K, m1 = 0.0344): 990.589 ± 4 kg/m3
mass density ([2]; 318.15 K, m1 = 0.0526): 990.791 ± 4 kg/m3
mass density ([2]; 318.15 K, m1 = 0.0926): 991.228 ± 4 kg/m3
mass density ([2]; 318.15 K, m1 = 0.1181): 991.504 ± 4 kg/m3
mass density ([2]; 318.15 K, m1 = 0.1806): 992.177 ± 4 kg/m3
mass density ([2]; 318.15 K, m1 = 0.2371): 992.785 ± 4 kg/m3
mass density ([2]; 318.15 K, m1 = 0.479): 995.37 ± 4 kg/m3
mass density ([2]; 318.15 K, m1 = 0.7374): 998.079 ± 4 kg/m3

— the NIST ThermoML archive (doi:10.1021/acs.jced.7b00297)
